Legend:
Details in all cases: 72 h
Caco-2 [1] = test: cell viability relative to DMSO; higher = less toxic
Calu-3 [2] = test: as above
HepG2 [3] = test: as above
U2OS [4] = test: as above
Vero E6 [5] = test: as above
Caco-2 [6] = test: relative viability EC50 (midpoint between 100% and the lowest measured viability); higher = less toxic
Calu-3 [7] = test: as above
HepG2 [8] = test: as above
U2OS [9] = test: as above
Vero E6 [10] = test: as above
Caco-2 [11] = test: drug sensitivity score (DSS) for viability; higher = more toxic; extreme values may be limits of the assay
Calu-3 [12] = test: as above
HepG2 [13] = test: as above
U2OS [14] = test: as above
Vero E6 [15] = test: as above

Row | Compound | cell viability (Caco-2 [1]; 1 nM) | cell viability (Caco-2 [1]; 10 nM) | cell viability (Caco-2 [1]; 100 nM) | cell viability (Caco-2 [1]; 1000 nM) | cell viability (Caco-2 [1]; 10000 nM) | cell viability (Calu-3 [2]; 1 nM) | cell viability (Calu-3 [2]; 10 nM) | cell viability (Calu-3 [2]; 100 nM) | cell viability (Calu-3 [2]; 1000 nM) | cell viability (Calu-3 [2]; 10000 nM) | cell viability (HepG2 [3]; 1 nM) | cell viability (HepG2 [3]; 10 nM) | cell viability (HepG2 [3]; 100 nM) | cell viability (HepG2 [3]; 1000 nM) | cell viability (HepG2 [3]; 10000 nM) | cell viability (U2OS [4]; 1 nM) | cell viability (U2OS [4]; 10 nM) | cell viability (U2OS [4]; 100 nM) | cell viability (U2OS [4]; 1000 nM) | cell viability (U2OS [4]; 10000 nM) | cell viability (Vero E6 [5]; 1 nM) | cell viability (Vero E6 [5]; 10 nM) | cell viability (Vero E6 [5]; 100 nM) | cell viability (Vero E6 [5]; 1000 nM) | cell viability (Vero E6 [5]; 10000 nM) | relative viability EC50 (Caco-2 [6]) | relative viability EC50 (Calu-3 [7]) | relative viability EC50 (HepG2 [8]) | relative viability EC50 (U2OS [9]) | relative viability EC50 (Vero E6 [10]) | drug sensitivity score (Caco-2 [11]) | drug sensitivity score (Calu-3 [12]) | drug sensitivity score (HepG2 [13]) | drug sensitivity score (U2OS [14]) | drug sensitivity score (Vero E6 [15])
1 | CCC(CC)(NC(=O)C(C)C)C(=O)N[C@@H](CCCNC(=N)N)C(=O)NC1(C(=O)NC(c2ccc(F)cc2)c2ccc(F)cc2)CCCC1 [MM-102] | 99% | 93.9% | 101% | 94.6% | 102% | 98.1% | 85.4% | 92.5% | 97.8% | 97.8% | 100% | 96.8% | 98.4% | 105% | 114% | 97.8% | 94.9% | 101% | 95.8% | 99.2% | 94.2% | 101% | 97.3% | 99.5% | 106% | > 10 µM | > 10 µM | > 10 µM | > 10 µM | > 10 µM | 0 | 0 | 0 | 0 | 0
2 | CCc1ccccc1OC[C@@H](O)CN[C@H]1CCCc2ccccc21 | 102% | 98.9% | 100% | 95.6% | 87.6% | 104% | 98.5% | 99.7% | 91.1% | 80.8% | 95.6% | 103% | 99.1% | 99.9% | 89.5% | 96.6% | 92.2% | 98.2% | 95.5% | 87% | 94.7% | 97.2% | 89.5% | 95.3% | 106% | > 10 µM | > 10 µM | > 10 µM | > 10 µM | > 10 µM | 0.3 | 1.4 | 0 | 0 | 0
3 | CC(C)(C)C(=O)Oc1ccc(S(=O)(=O)Nc2ccccc2C(=O)NCC(=O)O)cc1 [sivelestat] | 91% | 97% | 94.1% | 93.5% | 91.3% | 97.2% | 96.1% | 90.5% | 103% | 109% | 101% | 92.6% | 103% | 90% | 98.3% | 98.5% | 100% | 96.2% | 101% | 96.5% | 107% | 96.5% | 104% | 98.8% | 100% | > 10 µM | > 10 µM | > 10 µM | > 10 µM | > 10 µM | 0 | 0 | 0 | 0 | 0
4 | COc1ccc(OC)c2c(=S)c3ccccc3[nH]c12 | 112% | 96.7% | 99.5% | 102% | 88.6% | 105% | 100% | 99.4% | 108% | 106% | 88.8% | 96.3% | 94% | 98.9% | 76.6% | 102% | 98.3% | 102% | 99.7% | 103% | 99.4% | 104% | 102% | 97.2% | 96.2% | > 10 µM | > 10 µM | > 10 µM | > 10 µM | > 10 µM | 0 | 0 | 1 | 0 | 0
5 | C=CCCCCCCCCC(=O)[O][Zn][O]C(=O)CCCCCCCCC=C [zinc-undecylenate] | 94.4% | 96.3% | 98.2% | 96.6% | 86.9% | 95.7% | 100% | 101% | 95.6% | 116% | 102% | 98.8% | 99.3% | 100% | 92% | 97.7% | 98.8% | 98.4% | 95.1% | 99.1% | 105% | 95.9% | 94.8% | 98.5% | 93.9% | > 10 µM | > 10 µM | > 10 µM | > 10 µM | > 10 µM | 0.3 | 0 | 0 | 0 | 0
6 | CC(C)N(CCCNC(=O)Nc1ccc(C(C)(C)C)cc1)C[C@H]1O[C@@H](n2cc(Br)c3c(N)ncnc32)[C@H](O)[C@@H]1O [SGC-0946] | 91.2% | 98.7% | 101% | 103% | 101% | 96% | 106% | 93.9% | 101% | 95.2% | 92.1% | 96.6% | 106% | 104% | 96.6% | 92.3% | 102% | 99.7% | 112% | 107% | 94.4% | 95.7% | 93% | 97.6% | 110% | > 10 µM | > 10 µM | > 10 µM | > 10 µM | > 10 µM | 0 | 0 | 0 | 0 | 0
7 | O=C(c1ccc(Cl)cc1)N(Cc1ccccc1)C1CCCCC1 [FPS-ZM1] | 101% | 91.6% | 93.3% | 102% | 89.4% | 105% | 96.3% | 102% | 99.3% | 89.7% | 106% | 106% | 102% | 92.9% | 93.8% | 98% | 98.6% | 97.4% | 100% | 96.2% | 97.6% | 97.7% | 99.3% | 101% | 90.8% | > 10 µM | > 10 µM | > 10 µM | > 10 µM | > 10 µM | 0 | 0 | 0 | 0 | 0
8 | O=C(/C=C/c1cccc(S(=O)(=O)Nc2ccccc2)c1)NO [belinostat] | 87.9% | 96.6% | 89.3% | 21.6% | 0.6% | 90.7% | 89.2% | 86.6% | 41% | 9.9% | 98.5% | 98.7% | 87.6% | 22.4% | 0.3% | 94.6% | 94.9% | 81.9% | 16% | 0.9% | 93.2% | 92.9% | 83.4% | 8.4% | 0.1% | 0.412 µM | 0.506 µM | 0.406 µM | 0.29 µM | 0.252 µM | 15.9 | 13.1 | 16 | 17.7 | 18.8
9 | CCC1(CC)C(=O)C=CNC1=O [pyrithyldione] | 100% | 93.1% | 93.4% | 92.3% | 102% | 93.1% | 94.1% | 99.5% | 99.9% | 96.7% | 91% | 92% | 94.9% | 104% | 95.1% | 98.2% | 95% | 97.8% | 95.1% | 96.6% | 93.5% | 107% | 97.5% | 102% | 93.6% | > 10 µM | > 10 µM | > 10 µM | > 10 µM | > 10 µM | 0 | 0 | 0 | 0 | 0
10 | C1CCC2(CC1)CCNCC2 [4,4-pentamethylenepiperidine] | 99.9% | 93% | 97.4% | 91.2% | 102% | 99.2% | 96.3% | 109% | 95.1% | 101% | 104% | 90.7% | 96% | 102% | 96.7% | 97.2% | 95.3% | 95.2% | 94.9% | 91.7% | 102% | 101% | 100% | 104% | 98.7% | > 10 µM | > 10 µM | > 10 µM | > 10 µM | > 10 µM | 0 | 0 | 0 | 0 | 0
11 | COc1ccc(CC(C)NCC(O)c2ccc(O)c(NC=O)c2)cc1 (stereo not given) [formoterol] | 96% | 90.2% | 93.4% | 100% | 98.5% | 99.3% | 101% | 101% | 88.1% | 92.4% | 101% | 89.4% | 98.5% | 93.7% | 105% | 95.5% | 102% | 97.2% | 105% | 97.8% | 93.9% | 91.5% | 97.2% | 95.3% | 104% | > 10 µM | > 10 µM | > 10 µM | > 10 µM | > 10 µM | 0 | 0.5 | 0 | 0 | 0
12 | CC(C)NC[C@@H](O)COc1ccccc1-n1cccc1 (racemic) [isamoltane] | 96.3% | 97.7% | 93.1% | 103% | 107% | 98.2% | 99.2% | 94.9% | 97.1% | 98.3% | 97.1% | 100% | 108% | 105% | 104% | 96.8% | 99% | 97.4% | 107% | 102% | 105% | 97.7% | 96.1% | 96.3% | 102% | > 10 µM | > 10 µM | > 10 µM | > 10 µM | > 10 µM | 0 | 0 | 0 | 0 | 0
13 | CC(C)(C)NC(=O)[C@@H](c1cccnc1)N(C(=O)c1ccco1)c1ccc(C(C)(C)C)cc1 [ML188] | 99.7% | 95% | 98.2% | 101% | 89.9% | 93.6% | 93.4% | 96.9% | 102% | 89.7% | 96.3% | 101% | 92.1% | 106% | 95% | 93.9% | 100% | 96.6% | 101% | 98.8% | 93.1% | 97.7% | 103% | 108% | 97.6% | > 10 µM | > 10 µM | > 10 µM | > 10 µM | > 10 µM | 0 | 0 | 0 | 0 | 0
14 | C[C@@H](Nc1cc(F)cc(F)c1)c1cc(C(=O)N(C)C)cc2c(=O)cc(N3CCOCC3)oc12 [AZD8186] | 90.7% | 78.2% | 84.1% | 75.3% | 48% | 88.4% | 100% | 82.8% | 76.4% | 47.8% | 101% | 92.2% | 96.5% | 92% | 75.7% | 96.2% | 97.3% | 96.8% | 87.9% | 76.9% | 96.8% | 95.6% | 89.2% | 78.9% | 75% | 0.2 µM | 0.6 µM | > 10 µM | > 10 µM | > 10 µM | 8.8 | 6.4 | 1.5 | 1.7 | 3.8

From the supplement of paper PMC13380429
